Assay results reported in ChEMBL document CHEMBL1201862, “PubChem BioAssay data set” (2004).
Active and inactive are the calls of the source.

What was measured:
Protein skinhead-1 = molecular target: T1, Protein skinhead-1 (Caenorhabditis elegans, UniProt P34707); format: functional
T1 sequence (P34707 whole entry): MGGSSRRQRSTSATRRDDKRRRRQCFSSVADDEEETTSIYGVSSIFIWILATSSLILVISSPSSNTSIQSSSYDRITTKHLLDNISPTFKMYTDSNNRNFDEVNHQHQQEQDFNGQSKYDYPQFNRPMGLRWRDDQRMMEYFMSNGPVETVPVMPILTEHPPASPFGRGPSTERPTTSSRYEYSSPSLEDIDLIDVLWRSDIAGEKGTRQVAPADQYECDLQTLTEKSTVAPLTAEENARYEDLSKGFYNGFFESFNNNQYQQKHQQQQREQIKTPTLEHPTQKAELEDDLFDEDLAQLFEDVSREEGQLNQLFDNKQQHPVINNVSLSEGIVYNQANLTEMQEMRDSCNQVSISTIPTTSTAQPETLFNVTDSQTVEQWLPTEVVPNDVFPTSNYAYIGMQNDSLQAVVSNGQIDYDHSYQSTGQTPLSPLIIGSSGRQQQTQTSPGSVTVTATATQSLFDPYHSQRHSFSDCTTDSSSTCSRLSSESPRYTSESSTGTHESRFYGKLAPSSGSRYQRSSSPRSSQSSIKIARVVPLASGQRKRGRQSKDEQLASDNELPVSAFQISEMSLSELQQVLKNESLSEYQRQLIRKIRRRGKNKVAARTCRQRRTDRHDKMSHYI

cells = format: functional
Cytochrome P450 2D6 = Cytochrome P450 2D6 (Homo sapiens, UniProt P10635);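 note: CYP2D6 member of a cytochrome P450 panel assay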
[1] = Luminescence Cell-Based Dose Confirmation HTS to Identify Inhibitors of Platelet Dense Granule Release. [Related pubchem assays: 1663 (Primary HTS), 1678 (Summary of Project)]; format: functional
[2] = molecular target: Luciferin 4-monooxygenase (Photinus pyralis, UniProt P08659); experiment: firefly luciferase enzyme inhibitors, dose response, biochemical, luminescence (AID 1891)
[3] = molecular target: T2, Calpain-2 catalytic subunit (Sus scrofa, UniProt P43367); experiment: pig calpain II inhibitor potency, dose response, biochemical, fluorogenic peptide substrate (AID 1420); format: functional
T2 sequence (P43367 whole entry): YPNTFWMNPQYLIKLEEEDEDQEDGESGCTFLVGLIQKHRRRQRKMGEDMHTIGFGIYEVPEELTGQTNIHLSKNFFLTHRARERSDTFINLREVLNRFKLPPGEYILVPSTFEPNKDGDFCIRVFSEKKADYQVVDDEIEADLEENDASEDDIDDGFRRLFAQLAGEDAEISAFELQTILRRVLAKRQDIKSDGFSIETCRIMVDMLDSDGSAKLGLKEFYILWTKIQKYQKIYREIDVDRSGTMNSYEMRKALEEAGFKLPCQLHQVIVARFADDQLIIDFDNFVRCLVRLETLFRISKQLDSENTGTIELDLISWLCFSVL

[4] = molecular target: T3, Corticotropin-releasing factor receptor 2/Corticotropin-releasing factor-binding protein (Homo sapiens, UniProt P24387+Q13324); experiment: activators of CRF receptor 2 with binding protein – uHTS hits, confirmation (AID 602473); format: functional; conditions: read-out: EC50_Mean
T3 sequence (Q13324 whole entry): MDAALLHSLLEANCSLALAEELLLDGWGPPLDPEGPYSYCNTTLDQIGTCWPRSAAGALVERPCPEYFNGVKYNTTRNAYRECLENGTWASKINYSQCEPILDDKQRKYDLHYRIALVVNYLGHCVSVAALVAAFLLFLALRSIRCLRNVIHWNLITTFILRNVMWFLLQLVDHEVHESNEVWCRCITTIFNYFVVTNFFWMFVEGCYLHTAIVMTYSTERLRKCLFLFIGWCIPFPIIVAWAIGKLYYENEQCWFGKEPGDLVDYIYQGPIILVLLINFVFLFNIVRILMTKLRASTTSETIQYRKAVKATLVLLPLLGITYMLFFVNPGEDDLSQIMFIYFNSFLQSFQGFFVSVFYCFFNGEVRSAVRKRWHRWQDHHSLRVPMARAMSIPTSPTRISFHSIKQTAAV
T3 sequence (P24387 whole entry): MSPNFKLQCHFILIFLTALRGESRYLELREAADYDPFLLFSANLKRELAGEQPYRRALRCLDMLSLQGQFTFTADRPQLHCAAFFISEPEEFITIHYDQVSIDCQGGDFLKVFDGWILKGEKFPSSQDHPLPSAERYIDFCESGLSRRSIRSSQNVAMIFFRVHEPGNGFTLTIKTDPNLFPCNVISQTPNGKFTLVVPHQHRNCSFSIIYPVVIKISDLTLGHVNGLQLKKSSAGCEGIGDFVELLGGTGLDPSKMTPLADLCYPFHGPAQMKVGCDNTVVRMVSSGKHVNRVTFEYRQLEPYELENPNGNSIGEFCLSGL

Cytochrome P450 1A2 = molecular target: T4, Cytochrome P450 1A2 (Homo sapiens, UniProt P05177);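 note: PubChem cytochrome P450 panel assay, CYP1A2 panel member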
T4 sequence (P05177 whole entry): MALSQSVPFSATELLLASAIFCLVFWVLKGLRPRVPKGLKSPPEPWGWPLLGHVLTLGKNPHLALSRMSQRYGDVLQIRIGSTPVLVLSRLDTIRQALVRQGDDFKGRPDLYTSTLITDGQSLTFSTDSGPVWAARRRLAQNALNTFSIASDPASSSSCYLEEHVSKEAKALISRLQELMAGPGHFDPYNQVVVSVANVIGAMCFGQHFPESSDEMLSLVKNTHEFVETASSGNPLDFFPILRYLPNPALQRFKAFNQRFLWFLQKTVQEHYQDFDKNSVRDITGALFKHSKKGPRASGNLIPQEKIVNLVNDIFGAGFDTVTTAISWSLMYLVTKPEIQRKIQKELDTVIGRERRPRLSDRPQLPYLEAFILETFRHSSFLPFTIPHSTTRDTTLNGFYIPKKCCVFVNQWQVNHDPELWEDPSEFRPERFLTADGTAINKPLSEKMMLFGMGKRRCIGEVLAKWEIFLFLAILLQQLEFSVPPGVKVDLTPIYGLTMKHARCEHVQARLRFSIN

Streptococcus = experiment: Group A Streptococcus viability loss, dose response, counter-screen for streptokinase expression inhibitor project, luminescence, BacTiterGlo (AID 1915); format: functional, organism-based;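 note: potency for reduction of bacterial viability or growth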
[5] = tested on: Streptococcus sp. 'group A'; experiment: growth inhibition of control SK(-) GAS strain, dose response, counter-screen for streptokinase expression inhibitor project, luminescence, kanamycin, BacTiterGlo, confirmation (AID 1900); format: functional, organism-based
Streptokinase A = molecular target: T5, Streptokinase A (Streptococcus pyogenes serotype M1, UniProt P10520); experiment: S. pyogenes streptokinase expression inhibitors, potency, dose response, plasminogen activation absorbance, OD405 (AID 1914); format: functional, Streptococcus pyogenes M1 GAS;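 note: secreted streptokinase activity via plasminogen activation per viability signal from cell pellet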
T5 sequence (P10520 whole entry): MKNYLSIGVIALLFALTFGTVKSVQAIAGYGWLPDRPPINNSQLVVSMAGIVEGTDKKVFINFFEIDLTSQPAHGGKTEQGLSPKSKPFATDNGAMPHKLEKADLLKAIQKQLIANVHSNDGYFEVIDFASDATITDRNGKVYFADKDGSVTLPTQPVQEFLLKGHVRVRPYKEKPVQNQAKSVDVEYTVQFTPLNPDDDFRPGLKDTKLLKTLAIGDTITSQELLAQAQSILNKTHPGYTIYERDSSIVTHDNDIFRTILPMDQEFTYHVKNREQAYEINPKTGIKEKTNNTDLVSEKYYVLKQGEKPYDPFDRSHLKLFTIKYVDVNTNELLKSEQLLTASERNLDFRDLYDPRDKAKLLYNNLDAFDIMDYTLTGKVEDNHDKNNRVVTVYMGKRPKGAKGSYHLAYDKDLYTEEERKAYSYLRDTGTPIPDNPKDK

[6] = Shn3 3'UTR reporter inhibitors, dose response, cell-based, Clone20 osteoblasts, firefly luciferase, cherry-picked (AID 624132); format: functional;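 note: firefly luciferase luminescence from reporter carrying the Shn3 3'UTR in osteoblasts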
[7] = Luminescence Cell-Based Dose Retest to Confirm Inhibitors of Cancer Stem Cells. [Related pubchem assays (depositor defined):AID2717, AID2721]; format: functional; conditions: Homo sapiens
Cytochrome P450 2C19 = Cytochrome P450 2C19 (Homo sapiens, UniProt P33261); experiment: Cytochrome panel assay with activity outcomes. Panel member name: p450-cyp2c19 Compounds with AC50 equal or less than 10 uM are considered active; format: functional
Cytochrome P450 3A4 = Cytochrome P450 3A4 (Homo sapiens, UniProt P08684);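 note: CYP3A4 tested as one member of a cytochrome P450 panel screen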
Chain of Cytochrome P450 3A4 (P08684 whole entry): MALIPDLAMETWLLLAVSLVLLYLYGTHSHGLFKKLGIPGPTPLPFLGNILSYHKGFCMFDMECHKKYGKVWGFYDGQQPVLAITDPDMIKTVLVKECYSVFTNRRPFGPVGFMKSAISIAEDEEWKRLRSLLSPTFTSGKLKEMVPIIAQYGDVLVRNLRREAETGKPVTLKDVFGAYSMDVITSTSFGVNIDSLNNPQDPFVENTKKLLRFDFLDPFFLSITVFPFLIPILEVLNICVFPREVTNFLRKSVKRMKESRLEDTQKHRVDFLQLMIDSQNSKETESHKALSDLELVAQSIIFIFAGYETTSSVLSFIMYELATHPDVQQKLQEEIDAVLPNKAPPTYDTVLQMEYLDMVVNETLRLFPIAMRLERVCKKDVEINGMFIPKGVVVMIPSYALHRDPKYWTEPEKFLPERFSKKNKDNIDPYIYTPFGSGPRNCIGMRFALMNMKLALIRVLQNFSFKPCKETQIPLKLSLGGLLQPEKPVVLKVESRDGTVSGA

Chain of Luciferin 4-monooxygenase (P08659 whole entry): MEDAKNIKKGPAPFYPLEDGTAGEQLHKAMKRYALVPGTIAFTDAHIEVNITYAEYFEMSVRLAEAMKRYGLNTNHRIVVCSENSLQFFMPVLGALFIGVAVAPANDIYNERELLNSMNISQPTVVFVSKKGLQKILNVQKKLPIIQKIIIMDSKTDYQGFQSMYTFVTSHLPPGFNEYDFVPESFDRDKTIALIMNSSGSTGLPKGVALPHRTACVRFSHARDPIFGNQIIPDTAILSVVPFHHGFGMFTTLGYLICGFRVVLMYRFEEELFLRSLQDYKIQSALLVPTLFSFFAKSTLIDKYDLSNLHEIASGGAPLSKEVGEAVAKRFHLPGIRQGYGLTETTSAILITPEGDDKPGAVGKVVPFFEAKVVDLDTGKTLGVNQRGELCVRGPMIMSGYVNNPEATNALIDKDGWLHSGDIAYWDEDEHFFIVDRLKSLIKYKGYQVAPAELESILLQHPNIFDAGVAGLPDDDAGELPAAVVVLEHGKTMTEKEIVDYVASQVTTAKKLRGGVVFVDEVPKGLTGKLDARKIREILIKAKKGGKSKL
Chain of Cytochrome P450 2D6 (P10635 whole entry): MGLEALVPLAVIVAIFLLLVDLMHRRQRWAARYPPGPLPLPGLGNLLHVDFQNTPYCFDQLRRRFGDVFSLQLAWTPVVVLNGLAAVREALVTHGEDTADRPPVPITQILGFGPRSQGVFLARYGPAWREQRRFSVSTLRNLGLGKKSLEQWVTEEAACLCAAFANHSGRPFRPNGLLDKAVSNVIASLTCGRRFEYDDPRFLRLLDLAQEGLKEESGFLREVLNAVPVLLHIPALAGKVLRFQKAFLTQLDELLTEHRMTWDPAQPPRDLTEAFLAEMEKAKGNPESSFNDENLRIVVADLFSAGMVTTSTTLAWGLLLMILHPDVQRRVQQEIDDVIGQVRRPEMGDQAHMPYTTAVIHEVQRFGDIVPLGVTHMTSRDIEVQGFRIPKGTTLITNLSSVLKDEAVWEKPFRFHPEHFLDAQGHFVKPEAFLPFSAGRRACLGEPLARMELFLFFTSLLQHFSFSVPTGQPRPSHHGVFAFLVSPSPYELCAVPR
Chain of Cytochrome P450 2C19 (P33261 whole entry): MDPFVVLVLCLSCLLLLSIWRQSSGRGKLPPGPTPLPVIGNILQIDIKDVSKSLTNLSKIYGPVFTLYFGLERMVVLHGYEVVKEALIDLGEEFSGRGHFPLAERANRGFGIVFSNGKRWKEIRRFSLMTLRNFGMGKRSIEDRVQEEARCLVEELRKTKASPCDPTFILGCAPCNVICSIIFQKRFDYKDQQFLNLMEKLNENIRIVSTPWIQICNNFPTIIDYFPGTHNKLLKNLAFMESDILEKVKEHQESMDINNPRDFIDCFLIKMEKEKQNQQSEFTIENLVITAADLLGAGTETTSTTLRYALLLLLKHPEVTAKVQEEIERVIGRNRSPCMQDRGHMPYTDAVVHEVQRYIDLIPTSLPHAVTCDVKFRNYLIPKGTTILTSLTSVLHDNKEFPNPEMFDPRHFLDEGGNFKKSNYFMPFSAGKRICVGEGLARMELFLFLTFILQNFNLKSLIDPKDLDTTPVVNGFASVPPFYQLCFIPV

CCOc1ccc(Nc2ccc([N+](=O)[O-])c3nonc23)cc1
IC50 (Protein skinhead-1): > 100 µM (inactive) | IC50 (cells): 5.59 µM (active)

CN(C)c1ccc(-c2cncnc2NCc2cccs2)cc1
AC50 (Cytochrome P450 2D6): 39.8 µM (inconclusive)

O=S(=O)(Nc1ccc(-c2ccc3nncn3n2)cc1)c1ccccc1Cl
EC50 [1]: 51.9 µM (active) | EC50 [2]: > 112 µM (not active)

COc1ccc(C(NC(=O)c2ccc(-c3ccccc3)cc2)c2ccccc2)cc1 (centres undefined)
IC50 [3]: > 50 µM (not active)

Cc1ccc2nc(C)c3c(c2c1)COC3
IC50 (cells): > 50 µM (active)

CSc1nnc(C)c(/C=C/Nc2ccc(C)cc2)n1
EC50 [4]: 14.9 µM (active)

CN(CCc1ccccn1)C(=S)NC(=O)c1ccco1
IC50 [3]: 19 µM (not active)

COc1ccc2[nH]cc(CCNc3ncnc4ccc(-c5ccc(C(=O)N(C)C)cc5)cc34)c2c1
AC50 (Cytochrome P450 2D6): 25.1 µM (inconclusive) | AC50 (Cytochrome P450 1A2): 12.6 µM (inconclusive)

O=C(CCN1CCC(c2ccccc2)C1)c1ccccc1 (centres undefined)
IC50 (cells): 31.7 µM (active)

CSc1nc2c(c(-c3ccc(O)cc3)c1C#N)CCC2
EC50 [1]: > 112 µM (not active) | EC50 [2]: > 112 µM (not active)

Clc1ccc(CNc2ccc3nnc(-c4ccccc4)n3n2)cc1
EC50 [1]: > 112 µM (not active) | EC50 [2]: > 112 µM (not active)

Cc1cc(/C=C(\C#N)C(=O)Nc2ccc(F)cc2)c(C)n1-c1ccc(N2CCOCC2)c([N+](=O)[O-])c1
IC50 (Protein skinhead-1): > 100 µM (inactive)

CCN(CC(=O)NCc1ccc(F)cc1)Cc1nc(O)c2ccc(Cl)cc2n1
IC50 (Protein skinhead-1): > 100 µM (inactive)

CNC(=O)c1c(NC(=O)c2ccc(N3C(=O)CCC3=O)cc2)sc2c1CCC(C)C2 (centres undefined)
IC50 (Protein skinhead-1): > 100 µM (inactive) | EC50 (Streptococcus): 103 µM (active) | EC50 [5]: 20.7 µM (active) | EC50 (Streptokinase A): > 150 µM (not active)

Cc1ccc(C)c(N2CCN(S(=O)(=O)c3ccc4nc(O)ccc4c3)CC2)c1
AC50 [6]: 24.2 µM (active)

Cc1ccc(CNC(=O)c2ccc3c(=O)n(CC4CCCO4)c(=S)[nH]c3c2)cc1 (centres undefined)
IC50 [3]: 1.19 µM (not active)

Cc1ccc(/C=C2/C(=O)NC(=O)N(CCc3ccc(F)cc3)C2=O)s1
IC50 (cells): 39.2 µM (active)

O=C(CCCCl)Oc1ccc2cc(-c3ccc4ccccc4n3)c(=O)oc2c1
EC50 [4]: 13.7 µM (active)

CC(C)c1onc(C(=O)Nc2cccnc2Cl)c1[N+](=O)[O-]
IC50 [3]: 22.5 µM (not active)

O=C(c1ccc(F)cc1)c1cc2ccc(O)cc2oc1=O
EC50 (Streptococcus): 15.7 µM (active) | EC50 [5]: 10.7 µM (active) | EC50 [1]: 0.457 µM (active) | EC50 [2]: 0.731 µM (active)

COc1ccc(C2=Nc3cccc4cccc(c34)N2)cc1
AC50 (Cytochrome P450 2D6): 1.41 µM (inconclusive)

Cc1ccccc1C(=O)NC(CC(C)C)C(=O)Nc1ccc(S(N)(=O)=O)cc1 (centres undefined)
EC50 [1]: > 112 µM (not active) | EC50 [2]: > 112 µM (not active)

O=c1cc(N2CCCCC2)c(-c2ccccc2)nn1Cc1cccc(F)c1
IC50 [3]: > 50 µM (not active) | AC50 [7]: 4.74 µM (active)

CC1(C)N=C(N)N=C(N)N1c1cccc(OCc2cccc([N+](=O)[O-])c2)c1
AC50 (Cytochrome P450 2D6): 3.16 µM (inconclusive) | AC50 (Cytochrome P450 2C19): inconclusive | AC50 (Cytochrome P450 1A2): 5.01 µM (inconclusive)

O=C(NC1CCCCC1)N1CCC(c2nc(-c3ccc(S(=O)(=O)N4CCCC4)cc3)no2)CC1
EC50 [1]: > 112 µM (not active) | EC50 [2]: > 112 µM (not active)

COC(=O)c1cc2sccc2n1Cc1ccc(C)cc1
IC50 (Protein skinhead-1): > 100 µM (inactive)

Cc1ccc(NC(=O)CSc2nsc(SCC(=O)Nc3ccc(C)cc3C)c2C#N)c(C)c1
IC50 [3]: > 50 µM (not active)

O=C(NCCCN1CCOCC1)C1(c2ccccc2)CCCC1
EC50 [1]: > 112 µM (not active) | EC50 [2]: > 112 µM (not active)

O=C(O)[C@@H]1[C@@H]2C[C@H]3c4[nH]c5ccccc5c4CCN3C[C@@H]2CC[C@@H]1O
AC50 (Cytochrome P450 2D6): 7.94 µM (inconclusive) | AC50 (Cytochrome P450 1A2): 12.6 µM (inconclusive)

Cc1c(Cl)cccc1NC(=O)CC1NCCNC1=O (centres undefined)
IC50 (Protein skinhead-1): > 100 µM (inactive) | AC50 (Cytochrome P450 3A4): 20 µM (inconclusive) | AC50 (Cytochrome P450 2C19; read-out: AC50): 39.8 µM (inconclusive)

O=c1c2ccccc2ncn1-c1ccc(Cl)cc1Cl
IC50 (Protein skinhead-1): > 100 µM (inactive)

NS(=O)(=O)c1ccc(CCNC(=O)COC(=O)CCc2c[nH]c3ccccc23)cc1
EC50 [4]: 22 µM (active)

CCn1nc(CCC(=O)O)c2ccccc2c1=O
IC50 (Protein skinhead-1): > 100 µM (inactive)

COc1ccc(/C=N/N=C(\N)c2nonc2N)cc1
EC50 [1]: 2.67 µM (active) | EC50 [2]: 3.82 µM (active)

CC(/C=C(\O)c1ccc(C)cc1)=N\c1cccc(O)c1
IC50 [3]: 4.68 µM (not active)

O=C(N/N=C/c1cccnc1)c1ccc([N+](=O)[O-])cc1
AC50 (Cytochrome P450 2D6): 14.1 µM (inconclusive)

CCCN1CCc2cccc3c2[C@@H]1Cc1ccc(O)c(O)c1-3
AC50 (Cytochrome P450 2D6): 10 µM (inconclusive) | AC50 (Cytochrome P450 3A4): 12.6 µM (inconclusive)
